Patent US20070243147A1, “Skin and/or Hair Composition Containing Compounds for Increasing The Tanning of Skin” (BEIERSDORF AG, priority 2004, published 2007)

Test system: primary normal human melanocytes
Assay: melanogenesis assay (14C-tyrosine incorporation) after 3 days of incubation
Format: cell-based
Details: for melanogenesis rate (measured as 14C-tyrosine incorporation) based on the untreated control (=100%): 3 days incubation, primary normal human melanocytes, mean (X transverse), n=4
Experimental: A melanogenesis assay was carried out after 3 days of incubation of primary normal human melanocytes with test substance compared to control. The figures listed in the table give the melanogenesis rates (measured as ^14C-tyrosine incorporation) based on the untreated control (=100%). It results from this that the melanogenesis, i.e., the process of melanine synthesis, rises to 156% or 150% when the melanocytes are cultivated in the presence of the compound (I) (2E,3S,4R)-2,3,4-trimethyl-3-[(3E,7E,11E)-3,8,12,16-tetramethylheptadeca-3,7,11,15-tetraen-1-yl]cyclohexanone (n=4).
Furthermore, a melanogenesis assay was carried out after 3 days of incubation of primary normal human melanocytes with test substance compared to control. The figures listed in the table give the melanogenesis rates (measured as ^14C-tyrosine incorporation) based on the untreated control (=100%). It results from this that the melanogenesis, i.e., the process of melanine synthesis, rises to 135% or 113% when the melanocytes are cultivated in the presence of the preferred compound (III) (4E,8E,12E,16E)-3,7,11,15-tetrahydroxy-18-(hydroxymethyl)-2,4,6,10,14,16,20-heptamethyldocosa-4,8,12,16-teraenoic acid (n=4).

| SMILES | melanogenesis rate (measured as 14C-tyrosine incorporation) based on the untreated control (=100%) (0.1 μg/ml test substance) [%] | melanogenesis rate (measured as 14C-tyrosine incorporation) based on the untreated control (=100%) (1 μg/ml test substance) [%] | increase of the synthesis of melanin (result in words) (tests to increase the synthesis of melanin) |
| --- | --- | --- | --- |
| CC(C)=CCC/C(C)=C/CC/C(C)=C/CC/C=C(\C)CC[C@@]1(C)[C@H](C)CCC(=O)[C@@H]1C [compound (I), (2R,3S,4R)-2,3,4-trimethyl-3-[(3E,7E,11E)-3,8,12,16-tetramethylheptadeca-3,7,11,15-tetraen-1-yl]cylcohexanone] | 150 | 156 |  |
| CCC(C)CC(/C=C(\C)C(O)C(C)/C=C/C(O)C(C)/C=C/C(O)C(C)/C=C(\C)C(O)C(C)C(=O)O)CO (centres unmarked) [compound (III), (4E,8E,12E, 16E)-3,7,11,15-tetrahydroxy-18-(hydroxymethyl)-2,4,6,10,14,16,20-heptamethyldocosa-4,8,12,16-tetraenoic acid] | 153 | 172 | particularly advantageous |
